From the NIST ThermoML archive (doi:10.1016/j.jct.2007.05.016)
± gives the expanded uncertainty stated by the source.

Test: xn = mol fraction of the nth substance listed
Conditions: 101 kPa, Liquid; for speed of sound: Sing-around technique in a fixed-path interferometer

CCCCCCCCCC [decane] + CCCCO
Conditions | mass density, 298.15 K [kg/m3] | mass density, 303.15 K [kg/m3] | mass density, 308.15 K [kg/m3] | speed of sound, 298.15 K [m/s] | speed of sound, 303.15 K [m/s] | speed of sound, 308.15 K [m/s] | viscosity, 298.15 K [mPa·s]
x2 = 0 | 726.806 ± 0.93 | 723.042 ± 0.94 | 719.23 ± 0.95 | 1234.8 ± 1.2 | 1215.2 ± 1.2 | 1195.6 ± 1.2 | 0.852 ± 0.012
x2 = 0.0678 | 728.769 ± 0.93 | 724.903 ± 0.94 | 721.031 ± 0.94 | 1230.4 ± 1.2 | 1210.6 ± 1.2 | 1191.9 ± 1.2 | 0.845 ± 0.012
x2 = 0.1105 | 730.259 ± 0.92 | 726.415 ± 0.93 | 722.511 ± 0.94 | 1228.8 ± 1.2 | 1209.1 ± 1.2 | 1189.4 ± 1.2 | 0.855 ± 0.012
x2 = 0.1614 | 732.194 ± 0.92 | 728.365 ± 0.93 | 724.437 ± 0.94 | 1227.3 ± 1.2 | 1207.6 ± 1.2 | 1187.9 ± 1.2 | 0.868 ± 0.012
x2 = 0.2372 | 735.44 ± 0.91 | 731.639 ± 0.92 | 727.679 ± 0.93 | 1225.4 ± 1.2 | 1206.1 ± 1.2 | 1185.5 ± 1.2 | 0.895 ± 0.013
x2 = 0.3068 | 738.779 ± 0.91 | 734.994 ± 0.92 | 731.004 ± 0.92 | 1224.1 ± 1.2 | 1204.5 ± 1.2 | 1184.6 ± 1.2 | 0.931 ± 0.013
x2 = 0.4278 | 745.484 ± 0.89 | 741.679 ± 0.9 | 737.66 ± 0.91 | 1222.9 ± 1.2 | 1203.7 ± 1.2 | 1183.8 ± 1.2 | 1.019 ± 0.014
x2 = 0.5071 | 750.606 ± 0.88 | 746.798 ± 0.89 | 742.769 ± 0.9 | 1222.8 ± 1.2 | 1203.8 ± 1.2 | 1184.3 ± 1.2 | 1.102 ± 0.015
x2 = 0.5547 | 754.019 ± 0.88 | 750.194 ± 0.88 | 746.151 ± 0.89 | 1222.9 ± 1.2 | 1203.9 ± 1.2 | 1184.8 ± 1.2 | 1.164 ± 0.015
x2 = 0.6068 | 758.098 ± 0.87 | 754.237 ± 0.88 | 750.219 ± 0.88 | 1223.4 ± 1.2 | 1204.5 ± 1.2 | 1185.6 ± 1.2 | 1.244 ± 0.016
x2 = 0.7032 | 766.65 ± 0.85 | 762.82 ± 0.86 | 758.774 ± 0.87 | 1224.9 ± 1.2 | 1206.3 ± 1.2 | 1187.6 ± 1.2 | 1.432 ± 0.018
x2 = 0.8036 | 777.321 ± 0.83 | 773.625 ± 0.84 | 769.593 ± 0.84 | 1227.9 ± 1.2 | 1210.2 ± 1.2 | 1191.3 ± 1.2 | 1.685 ± 0.021
x2 = 0.8498 | 782.998 ± 0.82 | 779.309 ± 0.82 | 775.279 ± 0.83 | 1229.9 ± 1.2 | 1212.4 ± 1.2 | 1194 ± 1.2 | 1.843 ± 0.023
x2 = 0.9015 | 790.035 ± 0.8 | 786.406 ± 0.81 | 782.421 ± 0.82 | 1232.8 ± 1.2 | 1215.7 ± 1.2 | 1197.9 ± 1.2 | 2.047 ± 0.026
x2 = 0.95 | 797.464 ± 0.79 | 794.041 ± 0.79 | 790.078 ± 0.8 | 1236.2 ± 1.2 | 1219.9 ± 1.2 | 1203.1 ± 1.2 | 2.277 ± 0.028

CCCCCC [hexane] + CCCCO
Conditions | mass density, 298.15 K [kg/m3] | mass density, 303.15 K [kg/m3] | mass density, 308.15 K [kg/m3] | speed of sound, 298.15 K [m/s] | speed of sound, 303.15 K [m/s] | speed of sound, 308.15 K [m/s] | viscosity, 298.15 K [mPa·s]
x2 = 0 | 655.072 ± 1.1 | 650.369 ± 1.1 | 645.767 ± 1.1 | 1077.8 ± 1.2 | 1055.2 ± 1.1 | 1032.9 ± 1.1 | 0.313 ± 0.008
x2 = 0.0507 | 660.196 ± 1.1 | 655.432 ± 1.1 | 650.791 ± 1.1 | 1077.6 ± 1.2 | 1054.9 ± 1.1 | 1032.7 ± 1.1 | 0.323 ± 0.008
x2 = 0.101 | 665.602 ± 1.1 | 660.733 ± 1.1 | 656.143 ± 1.1 | 1079.4 ± 1.2 | 1056.8 ± 1.1 | 1034.5 ± 1.1 | 0.338 ± 0.008
x2 = 0.1524 | 671.434 ± 1 | 666.54 ± 1.1 | 661.908 ± 1.1 | 1082.5 ± 1.2 | 1059.9 ± 1.2 | 1037.6 ± 1.1 | 0.356 ± 0.008
x2 = 0.2574 | 684.29 ± 1 | 679.54 ± 1 | 674.857 ± 1 | 1091.7 ± 1.2 | 1069.1 ± 1.2 | 1046.8 ± 1.1 | 0.409 ± 0.008
x2 = 0.379 | 700.46 ± 0.99 | 696.019 ± 1 | 691.525 ± 1 | 1106.3 ± 1.2 | 1083.7 ± 1.2 | 1062 ± 1.2 | 0.505 ± 0.009
x2 = 0.4125 | 705.163 ± 0.98 | 700.869 ± 0.99 | 696.345 ± 1 | 1111.1 ± 1.2 | 1088.5 ± 1.2 | 1066.7 ± 1.2 | 0.547 ± 0.01
x2 = 0.4502 | 710.564 ± 0.97 | 706.47 ± 0.98 | 701.99 ± 0.98 | 1116.7 ± 1.2 | 1094.1 ± 1.2 | 1072.3 ± 1.2 | 0.587 ± 0.01
x2 = 0.5121 | 719.663 ± 0.95 | 715.869 ± 0.96 | 711.606 ± 0.97 | 1126.5 ± 1.2 | 1103.9 ± 1.2 | 1082.5 ± 1.2 | 0.679 ± 0.011
x2 = 0.6005 | 733.301 ± 0.92 | 730.025 ± 0.93 | 725.938 ± 0.94 | 1141.9 ± 1.2 | 1120.8 ± 1.2 | 1099.2 ± 1.2 | 0.854 ± 0.012
x2 = 0.7004 | 749.66 ± 0.89 | 746.763 ± 0.89 | 742.943 ± 0.9 | 1162.2 ± 1.2 | 1141.1 ± 1.2 | 1120.6 ± 1.2 | 1.11 ± 0.015
x2 = 0.8202 | 770.812 ± 0.84 | 767.985 ± 0.85 | 764.319 ± 0.85 | 1190.9 ± 1.2 | 1171.5 ± 1.2 | 1151.5 ± 1.2 | 1.541 ± 0.02
x2 = 0.8523 | 776.78 ± 0.83 | 773.953 ± 0.83 | 770.292 ± 0.84 | 1199 ± 1.2 | 1179.9 ± 1.2 | 1160.3 ± 1.2 | 1.685 ± 0.021
x2 = 0.8957 | 785.079 ± 0.81 | 782.252 ± 0.82 | 778.547 ± 0.83 | 1210.5 ± 1.2 | 1192.1 ± 1.2 | 1172.9 ± 1.2 | 1.901 ± 0.024
x2 = 0.9476 | 795.298 ± 0.79 | 792.462 ± 0.8 | 788.743 ± 0.81 | 1225.1 ± 1.2 | 1207.9 ± 1.2 | 1189.6 ± 1.2 | 2.209 ± 0.028

CCCCCCCC [octane] + CCCCO
Conditions | mass density, 298.15 K [kg/m3] | mass density, 303.15 K [kg/m3] | mass density, 308.15 K [kg/m3] | speed of sound, 298.15 K [m/s] | speed of sound, 303.15 K [m/s] | speed of sound, 308.15 K [m/s] | viscosity, 298.15 K [mPa·s]
x2 = 0 | 698.58 ± 0.99 | 694.497 ± 1 | 690.416 ± 1 | 1172.7 ± 1.2 | 1152.1 ± 1.2 | 1131.7 ± 1.2 | 0.518 ± 0.009
x2 = 0.0563 | 701.448 ± 0.98 | 697.299 ± 0.99 | 693.192 ± 1 | 1169.8 ± 1.2 | 1149.2 ± 1.2 | 1128.6 ± 1.2 | 0.525 ± 0.009
x2 = 0.1091 | 704.623 ± 0.98 | 700.473 ± 0.99 | 696.337 ± 0.99 | 1169.4 ± 1.2 | 1148.8 ± 1.2 | 1128.2 ± 1.2 | 0.54 ± 0.009
x2 = 0.1579 | 707.716 ± 0.97 | 703.646 ± 0.98 | 699.455 ± 0.99 | 1169.4 ± 1.2 | 1149 ± 1.2 | 1128.1 ± 1.2 | 0.55 ± 0.01
x2 = 0.2245 | 712.309 ± 0.96 | 708.268 ± 0.97 | 704.085 ± 0.98 | 1170.1 ± 1.2 | 1149.5 ± 1.2 | 1129.2 ± 1.2 | 0.585 ± 0.01
x2 = 0.3117 | 718.911 ± 0.95 | 714.997 ± 0.96 | 710.775 ± 0.96 | 1172.1 ± 1.2 | 1151.8 ± 1.2 | 1131.4 ± 1.2 | 0.636 ± 0.01
x2 = 0.4013 | 726.41 ± 0.93 | 722.577 ± 0.94 | 718.357 ± 0.95 | 1175.4 ± 1.2 | 1155.4 ± 1.2 | 1135.6 ± 1.2 | 0.708 ± 0.011
x2 = 0.4519 | 731.021 ± 0.92 | 727.253 ± 0.93 | 723.057 ± 0.94 | 1177.8 ± 1.2 | 1158.1 ± 1.2 | 1138 ± 1.2 | 0.762 ± 0.011
x2 = 0.5106 | 736.716 ± 0.91 | 733.019 ± 0.92 | 728.779 ± 0.93 | 1181.2 ± 1.2 | 1161.7 ± 1.2 | 1141.9 ± 1.2 | 0.837 ± 0.012
x2 = 0.6032 | 746.6 ± 0.89 | 742.919 ± 0.9 | 738.734 ± 0.91 | 1187.9 ± 1.2 | 1169.1 ± 1.2 | 1149.6 ± 1.2 | 0.992 ± 0.014
x2 = 0.7087 | 759.397 ± 0.86 | 755.747 ± 0.87 | 751.584 ± 0.88 | 1197.5 ± 1.2 | 1179.4 ± 1.2 | 1160.3 ± 1.2 | 1.232 ± 0.016
x2 = 0.8063 | 772.907 ± 0.84 | 769.349 ± 0.84 | 765.239 ± 0.85 | 1208.9 ± 1.2 | 1191.2 ± 1.2 | 1172.8 ± 1.2 | 1.539 ± 0.02
x2 = 0.8492 | 779.452 ± 0.82 | 775.973 ± 0.83 | 771.885 ± 0.84 | 1214.9 ± 1.2 | 1197.5 ± 1.2 | 1179.4 ± 1.2 | 1.711 ± 0.022
x2 = 0.909 | 789.203 ± 0.8 | 786.026 ± 0.81 | 781.895 ± 0.82 | 1223.7 ± 1.2 | 1207.2 ± 1.2 | 1189.3 ± 1.2 | 1.991 ± 0.025
x2 = 0.956 | 797.537 ± 0.79 | 794.495 ± 0.79 | 790.449 ± 0.8 | 1231.9 ± 1.2 | 1215.5 ± 1.2 | 1198.8 ± 1.2 | 2.262 ± 0.028
